Assay results from patent US20250332096A1, “BEVERAGE FORMULATION AND METHOD OF PROMOTING CELLULAR HYDRATION BY ENHANCING INTRACELLULAR PERMEATION” (Eastpond Laboratories Limited, priority 2024, published 2025).
Values belong to the compound of their own block, whether it stands above or below them.

Tests used:
[1] = Water bonding detected by NIR spectroscopy; assay type: physicochemical; details: for water-bond interactions, second-derivative NIR spectra: 0.1%-5% w/w
Description: Hydration bond energies in pure waters and solutions of the same waters containing cyclodextrin compounds were assayed using IR spectroscopy in the near and middle infrared ranges. To record linear signals throughout an entire wavelength range, attenuation from water absorbance was minimized with a short optical length cuvette. NIR range spectra were registered on a FOSS NIR Systems, Inc. 6500 spectrometer and Sample Transport Module (STM) using a 1 mm-sized cuvette. Transmission spectra were collected from 1100-2498 nm using a lead sulfide (PbS) detector and Vision 2.51 software (2001; FOSS NIRSystems, Inc.) A Perkin-Elmer Spectrum 400 FT-NIR/FT-IR spectrometer and UATR (Universal Attenuated Total Reflectance; ZnSe-diamond crystal, 1× flat top plate) sample handling unit were used to obtain spectra across 2500-15385 nm (reported as 4000-650 cm^1). Measurements were performed at 24 C using a triglycine-sulfate (TGS) detector and Spectrum ES 6.3.2 software (PerkinElmer, 2008). Three samples of water were used in the present study. A first water sample was purified by reverse osmosis, carbon filtration, ultraviolet light exposure, membrane filtration to 0.2 micron absolute, and ozonation. Second and third water samples were not purified. […] No. CYL-2322. • β-cyclodextrin (βCD also denoted as BCD). Lot. No. CYL-2518/2. • γ-cyclodextrin (γCD also denoted as GCD), Lot. No. […] No. […] No. CYL-2258. • carboxymethyl-β-cyclodextrin (CMBCD), Lot. No. CYL-2576. • quaternary-ammonium-β-cyclodextrin (QABCD).

C. elegans = C. elegans longevity in hydration modified water (Example 5); assay type: in vivo; details: for Animals alive, % of initial: 0.1% w/w in nutritive media, USA I water; for effect on C. elegans survival: added to the culture media
Description: C. elegans nematodes were grown in petri-type dishes containing normal nutrient liquid media prepared alternatively with USA I water (described in Example 2) lacking any further additive component (control) or the same water supplemented with a parent α-, β-, or γ-cyclodextrin, and/or a bioactive agent, as an active component of cellular hydration. Fifty ±3 worms were transferred to each dish. Each condition was repeated in triplicate. Experiments were repeated for USA II and BP I waters described in Example 2.
• A. Addition of parent α-, β- and γ-cyclodextrins. • B. Addition of L-arginine and nicotinamide. • C. Addition of inclusion complexes of cyclodextrins with L-arginine and nicotinamide.

[2] = Water bonding detected by NIR spectroscopy; assay type: physicochemical; details: wavelength region 900-1200 nm; 0.1%-5% w/w
pH of test solutions = assay type: physicochemical; details: purified water
Description: (§1) 1:1 mol/mol stoichiometry complexes were prepared for the experiment. Nicotinic acid/alpha-CD complex was prepared by dissolving 11.22 g nicotinic acid and 98.63 g alpha-CD (89.66 g on dry basis) in 700 ml purified water. Nicotinamide/alpha-CD complex was prepared by dissolving 5.57 g nicotinamide and 49.3 g alpha-CD (44.4 g on dry basis) in 350 ml purified water and L-arginine/alpha-CD complex was prepared by dissolving 15.18 g L-arginine and 94.26 g alpha-CD (85.69 g on dry basis) in 700 ml purified water. Further, for all the three complexes, the liquid was frozen in dry ice bath and lyophilized. The dry lyophilizate was ground and sieved.
(§2) Clarity, pH, conductivity, density, viscosity, turbidity, surface tension and osmolality were determined in solutions prepared with purified water. […]

[3] = Conductivity of test solutions; assay type: physicochemical; details: purified water
Description: as §1, §2

[4] = Density measurements of test solutions; assay type: physicochemical
Description: The current study further manifests the density measurements in a cyclodextrin concentration dependent manner.
Water samples used were bottled water and tap water; wherein the tap water comprises the following impurities and properties: Free active chlorine (0.18 mg/1), Chloride (24 mg/1), Iron (6 μg/1), Manganese (2 μg/1), Nitrate (9 mg/1), Nitrite (<0.03 mg/1), Ammonium (<0.04 mg/1), Hardness of water (122 mg/l CaO), Conductivity (442 μS/cm) and pH 8. Purified water was produced by removal of dissolved ions by Merck/Millipore Synergy® Water Purification System at Cyclolab. The water quality produced Type 1 water (18.2 MΩ·cm at 25° C. ultrapure water) from pretreated water.
as §1, §2
However, it may not be established exactly which ionic species (Mg2+, Ca2+, Na+) causes this perturbation.

[5] = Viscosity of test solutions; assay type: physicochemical; details: purified water, 2.00%
Description: as §1
Clarity, pH, conductivity, density, viscosity, turbidity, surface tension and osmolality were determined in solutions prepared with purified water.

[6] = Turbidity of test solutions; assay type: physicochemical; details: purified water (reference)
Description: as §1, §2

[7] = Visual inspection (clarity) of test solutions; assay type: physicochemical; details: purified water
Description: as §1, §2

[8] = Surface tension of test solutions; assay type: physicochemical; details: purified water
Description: as §1, §2

[9] = tested on: Wheat seeds (Triticum aestivum); test: Wheat seed germination; assay type: in vivo; details: 0.5% w/w in USA I water
Description: Wheat seeds (Triticum aestivum) were germinated using USA I, USA II, and BP I waters described for Example 2. Germination rate using un-supplemented (control) water was compared to that with the same water variously supplemented with a cyclodextrin component, and/or a bioactive agent, as an active component of cellular hydration. For each condition, ten seeds were placed in continuous water contact in a Petri-type dish kept at 25 C in 12 hr light/dark cycles. Photometric images were recorded on days 1 to 6 after seeding. The percentage of seeds germinated was calculated and compared as a function of time and of the applied additive concentrations.
Water samples for seed germination were used alone with no additive, or containing cyclodextrins, or containing clathrate inclusion complexes of cyclodextrin with L-arginine or with nicotinamide (both obtained from Sigma Chemical Co.; St. Louis, MO), or with L-carnitine (from Lonza AG; Switzerland). […] Additive solutions were prepared fresh on the day of germination start.
Parent cyclodextrins α-cyclodextrin (ACD), β-cyclodextrin (BCD), and γ-cyclodextrin (GCD), were obtained from Wacker Chemie (Munich, Germany). The following derivatized cyclodextrins were obtained from Cyclolab Ltd. (Budapest, Hungary): hydroxypropylated-beta-cyclodextrin (DS-3)(HPBCD), carboxymethylated-β-cyclodextrin (DS-3.5)(CMBCD), 2-hydroxy-3-N,N,N-trimethylamino)propyl-β-cyclodextrin chloride (DS-3.6)(QABCD).
Germination kinetics in control and additive-modified water under identical conditions were quantified as the percentage of the seeds having a sprout. Each determination consisted of 100 seeds for each parameter. Results are reported in Table 5, below, and in FIGS. 11-13. • A) Cyclodextrin/L-Arg Inclusion Complex Increases Seed Germination.

Compound: OC[C@H]1O[C@@H]2O[C@H]3[C@H](O)[C@@H](O)[C@@H](O[C@H]4[C@H](O)[C@@H](O)[C@@H](O[C@H]5[C@H](O)[C@@H](O)[C@@H](O[C@H]6[C@H](O)[C@@H](O)[C@@H](O[C@H]7[C@H](O)[C@@H](O)[C@@H](O[C@H]8[C@H](O)[C@@H](O)[C@@H](O[C@H]9[C@H](O)[C@@H](O)[C@@H](O[C@H]1[C@H](O)[C@H]2O)O[C@@H]9CO)O[C@@H]8CO)O[C@@H]7CO)O[C@@H]6CO)O[C@@H]5CO)O[C@@H]4CO)O[C@@H]3CO [Gamma Cyclodextrin, γ-cyclodextrin]
pH (pH of test solutions; 0.05%): 6.82
pH (pH of test solutions; 0.10%): 6.79
pH (pH of test solutions; 1.00%): 6.87
pH (pH of test solutions; 2.00%): 6.77
Conductivity ([3]; 0.05%): 25.0 μS · cm^−1
Conductivity ([3]; 0.10%): 25.0 μS · cm^−1
Conductivity ([3]; 1.00%): 27.0 μS · cm^−1
Conductivity ([3]; 2.00%): 27.0 μS · cm^−1
Density (at 22 C.) ([4]; Tap water, 0.05%): 0.9997 ± 0.0007 g/cm³
Density (at 22 C.) ([4]; Tap water, 0.10%): 1.0002 ± 0.0004 g/cm³
Density (at 22 C.) ([4]; Tap water, 1.00%): 1.0035 ± 0.0007 g/cm³
Density (at 22 C.) ([4]; Tap water, 2.00%): 1.0094 ± 0.0006 g/cm³
Density (at 22 C.) ([4]; purified water, 0.05%): 0.995 ± 0.001 g/cm³
Viscosity (25 C.) [5]: 0.97 cP
Turbidity (Abs, λ = 410 nm) ([6]; 1.00%): 0.065 Abs
Turbidity (Abs, λ = 410 nm) ([6]; 2.00%): 0.108 Abs
Visual Inspection ([7]; 0.05%): clear
Visual Inspection ([7]; 0.10%): clear
Visual Inspection ([7]; 1.00%): hazy
Visual Inspection ([7]; 2.00%): hazy
Surface Tension ([8]; 0.05%): 72 mN · m^−1
Surface Tension ([8]; 0.10%): 72 mN · m^−1
Surface Tension ([8]; 1.00%): 73 mN · m^−1
Surface Tension ([8]; 2.00%): 73 mN · m^−1
number of animals surviving to old ages (C. elegans; after day 15, 0.1% w/w): significantly increased
Animals alive, % of initial (C. elegans; life span 10 days): 100 % of initial
Animals alive, % of initial (C. elegans; life span 15 days): 13 % of initial
Animals alive, % of initial (C. elegans; life span 18 days): 2 % of initial

Compound: N=C(N)NCCC[C@H](N)C(=O)O [L-arginine, reference compound]
effect on C. elegans survival (C. elegans): little effect

Compound: NC(=O)c1cccnc1 [nicotinamide, reference compound]
wheat seed germination, percentage of the seeds having a sprout ([9]; day 0): 0%
wheat seed germination, percentage of the seeds having a sprout ([9]; day 1): 0%
wheat seed germination, percentage of the seeds having a sprout ([9]; day 2): 4%
wheat seed germination, percentage of the seeds having a sprout ([9]; day 3): 10%
wheat seed germination, percentage of the seeds having a sprout ([9]; day 4): 60%
effect on C. elegans survival (C. elegans): little effect

Compound: OC[C@H]1O[C@@H]2O[C@H]3[C@H](O)[C@@H](O)[C@@H](O[C@H]4[C@H](O)[C@@H](O)[C@@H](O[C@H]5[C@H](O)[C@@H](O)[C@@H](O[C@H]6[C@H](O)[C@@H](O)[C@@H](O[C@H]7[C@H](O)[C@@H](O)[C@@H](O[C@H]8[C@H](O)[C@@H](O)[C@@H](O[C@H]1[C@H](O)[C@H]2O)O[C@@H]8CO)O[C@@H]7CO)O[C@@H]6CO)O[C@@H]5CO)O[C@@H]4CO)O[C@@H]3CO [β-Cyclodextrin, β-cyclodextrin]
Animals alive, % of initial (C. elegans; life span 10 days): 100 % of initial
Animals alive, % of initial (C. elegans; life span 15 days): 18 % of initial
Animals alive, % of initial (C. elegans; life span 18 days): 0 % of initial

The next lines start with results.

water-bond interactions, second-derivative NIR spectra ([1]; 1200-1500 nm): significantly modified
water-bond interactions, second-derivative NIR spectra ([1]; 1620-1710 nm): significantly modified
water-bond interactions, second-derivative NIR spectra ([1]; 2170-2370 nm): further significantly modified
modification of micro-structure of hydrogen bonded cluster systems in bulk water (spectral changes) ([1]; comparison among cyclodextrin-treated water samples): largest
water-bond interactions, second-derivative NIR spectra [2]: significantly modified
Compound: 2-hydroxy-3-N,N,N-trimethylamino)propyl-β-cyclodextrin chloride [Quaternary-ammonium-β-Cyclodextrin]
Animals alive, % of initial (C. elegans; life span 10 days): 98 % of initial
Animals alive, % of initial (C. elegans; life span 15 days): 13 % of initial
Animals alive, % of initial (C. elegans; life span 18 days): 2 % of initial

water-bond interactions, second-derivative NIR spectra ([1]; 1200-1500 nm): significantly modified
water-bond interactions, second-derivative NIR spectra ([1]; 1620-1710 nm): significantly modified
water-bond interactions, second-derivative NIR spectra ([1]; 2170-2370 nm): significantly modified
water-bond interactions, second-derivative NIR spectra [2]: further significantly modified
Compound: CC(O)COC[C@H]1O[C@@H]2O[C@H]3[C@H](O)[C@@H](O)[C@@H](O[C@H]4[C@H](O)[C@@H](O)[C@@H](O[C@H]5[C@H](O)[C@@H](O)[C@@H](O[C@H]6[C@H](O)[C@@H](O)[C@@H](O[C@H]7[C@H](O)[C@@H](O)[C@@H](O[C@H]8[C@H](O)[C@@H](O)[C@@H](O[C@H]1[C@H](O)[C@H]2O)O[C@@H]8COCC(C)O)O[C@@H]7COCC(C)O)O[C@@H]6COCC(C)O)O[C@@H]5COCC(C)O)O[C@@H]4COCC(C)O)O[C@@H]3COCC(C)O (stereo partly drawn) [HP-β-Cyclodextrin, 2-hydroxypropyl-β-cyclodextrin]
Animals alive, % of initial (C. elegans; life span 10 days): 96 % of initial
Animals alive, % of initial (C. elegans; life span 15 days): 17 % of initial
Animals alive, % of initial (C. elegans; life span 18 days): 0 % of initial

water-bond interactions, second-derivative NIR spectra ([1]; 1200-1500 nm): further significantly modified
water-bond interactions, second-derivative NIR spectra ([1]; 1620-1710 nm): significantly modified
water-bond interactions, second-derivative NIR spectra ([1]; 2170-2370 nm): significantly modified
water-bond interactions, second-derivative NIR spectra [2]: further significantly modified
Compound: carboxymethyl-β-cyclodextrin
Animals alive, % of initial (C. elegans; life span 10 days): 94 % of initial
Animals alive, % of initial (C. elegans; life span 15 days): 11 % of initial
Animals alive, % of initial (C. elegans; life span 18 days): 0 % of initial
